Measurements as given in patent US12391737B2, “Soluble NPY2 receptor agonists” (Boehringer Ingelheim International GmbH, priority 2020, dated 2025).
*1 amine or outer side, *2 acyl side, *3 side chain or, on linkers, in order; H or OH if unused. Where a SMILES comes first, the peptide text is derived from it. Side-chain parts run from the residue outwards. The star is where a group is joined. C18 diacid = O=C(O)CCCCCCCCCCCCCCCCC(=O)*; γGlu = O=C(O)[C@H](CCC(=O)[*:2])N[*:1]; Isovaleryl = CC(C)CC(=O)*; Ahx = NCCCCCC(=O)O

Tests used:
[1] = target: T1, Human Neuropeptide Y2 Receptor (Homo sapiens, UniProt P49146); assay: Radioligand binding competition assay (RLB); conditions: Table 3, 125I-PYY(1-36) competition; read-out: Ki
T1 construct: purchased CHEMICON HTS066M
T1 sequence (P49146 1-381): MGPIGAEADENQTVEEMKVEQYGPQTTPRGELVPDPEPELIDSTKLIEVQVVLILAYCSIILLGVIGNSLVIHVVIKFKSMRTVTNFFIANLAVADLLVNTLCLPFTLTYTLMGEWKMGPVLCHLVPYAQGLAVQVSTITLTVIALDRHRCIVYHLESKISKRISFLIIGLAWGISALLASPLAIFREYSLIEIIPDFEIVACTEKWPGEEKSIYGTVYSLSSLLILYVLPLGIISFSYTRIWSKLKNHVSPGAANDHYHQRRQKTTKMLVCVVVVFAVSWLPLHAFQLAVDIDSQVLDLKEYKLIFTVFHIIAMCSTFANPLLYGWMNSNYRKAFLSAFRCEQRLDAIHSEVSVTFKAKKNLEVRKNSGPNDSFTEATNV
Summary of the method: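 Competition binding used membranes expressing the receptor (0.5 μg protein/well) in 50 mM HEPES, 5 mM MgCl2, 1 mM CaCl2, pH 7.4 with 0.2% ovalbumin, incubated 2 h at room temperature with shaking. Bound radioligand was collected by filtration onto PEI-soaked GF/C filters and counted; IC50 from nonlinear sigmoidal fits.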

[2] = Solubility determination; conditions: for Sol6: pH 6; for Sol7: pH 7
Summary of the method: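 First, TFA-salt peptide was added to 0.1 M sodium diphosphate (pH 6.4 or 7.0) to 10 mg/ml and shaken 2 h at room temperature. Next, insoluble material was filtered off. Finally, filtrate and control, each 1 mg/ml in 50% acetonitrile, were compared by reversed-phase chromatography.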

Ki [1] [nM] | Sol6 [2] [mg/mL] | Sol7 [2] [mg/mL] | SMILES
12.7 | 3.6 | 8.8 | CC(C)CC(=O)N[C@@H](C)C(=O)N1CCC[C@H]1C(=O)N[C@@H](C)C(=O)N[C@@H](CCCCNC(=O)CCCCCNC(=O)CC[C@H](NC(=O)CCCCCCCCCCCCCCCCC(=O)O)C(=O)O)C(=O)N1CCC[C@H]1C(=O)N[C@@H](CCC(=O)O)C(=O)N[C@@H](CCC(=O)O)C(=O)N[C@@H](CC(=O)O)C(=O)N[C@@H](C)C(=O)N[C@@H](CO)C(=O)N1CCC[C@H]1C(=O)N[C@@H](CCC(=O)O)C(=O)N[C@@H](CCC(=O)O)C(=O)N[C@@H](CC(C)C)C(=O)N[C@@H](CCC(N)=O)C(=O)N[C@@H](CCCNC(=N)N)C(=O)N[C@@H](CCC(N)=O)C(=O)N[C@@H](Cc1ccc(O)cc1)C(=O)N[C@H](C(=O)N[C@@H](CO)C(=O)N[C@@H](CC(C)C)C(=O)N[C@@H](CCCNC(=N)N)C(=O)N[C@@H](Cc1c[nH]cn1)C(=O)N[C@@H](Cc1ccc(O)cc1)C(=O)N[C@@H](Cc1ccc(O)cc1)C(=O)N[C@@H](CC(N)=O)C(=O)N[C@@H](Cc1c[nH]c2ccccc12)C(=O)N[C@@H](CC(C)C)C(=O)N[C@H](C(=O)N[C@@H](CCCNC(=N)N)C(=O)N[C@@H](CCC(N)=O)C(=O)N[C@@H](CCCNC(=N)N)C(=O)N[C@@H](Cc1ccc(O)cc1)C(N)=O)[C@@H](C)O)C(C)C [Compound 5, N{alpha-4}-(3-methylbutanoyl)-N{epsilon-7}-(6-[(4S)-4-carboxy-4-(17-carboxyheptadecanamido)butanamido]hexanoyl)[4A,6A,7K,9E,18Q,20Q,22V,28Y,30W,31L]-hPYY(4-36)]
1.25 | 0.0 | 0.4 | CC[C@H](C)[C@H](NC(=O)[C@H](CCC(=O)O)NC(=O)[C@H](CCC(=O)O)NC(=O)[C@@H]1CCCN1C(=O)[C@@H](NC(=O)[C@H](C)NC(=O)[C@H](C)NC(=O)[C@H](CCC(=O)O)NC(=O)[C@H](CCC(=O)O)NC(=O)[C@@H]1CCCN1C(=O)[C@H](CCCCNC(=O)CCCCCNC(=O)CC[C@H](NC(=O)CCCCCCCCCCCCCCCCC(=O)O)C(=O)O)NC(=O)[C@H](C)NC(=O)[C@@H]1CCCN1C(=O)[C@H](C)NC(=O)CC(C)C)[C@@H](C)O)C(=O)N[C@@H](CCC(N)=O)C(=O)N[C@@H](CCCNC(=N)N)C(=O)N[C@@H](Cc1ccc(O)cc1)C(=O)N[C@@H](Cc1ccc(O)cc1)C(=O)N[C@H](C(=O)N[C@@H](CO)C(=O)N[C@@H](CC(C)C)C(=O)N[C@@H](CCCNC(=N)N)C(=O)N[C@@H](Cc1c[nH]cn1)C(=O)N[C@@H](Cc1ccc(O)cc1)C(=O)N[C@@H](Cc1ccc(O)cc1)C(=O)N[C@@H](CC(N)=O)C(=O)N[C@@H](Cc1c[nH]c2ccccc12)C(=O)N[C@@H](CC(C)C)C(=O)N[C@H](C(=O)N[C@@H](CCCNC(=N)N)C(=O)N[C@@H](CCC(N)=O)C(=O)N[C@@H](CCCNC(=N)N)C(=O)N[C@@H](Cc1ccc(O)cc1)C(N)=O)[C@@H](C)O)C(C)C [Compound 36, N{alpha-4}-(3-methylbutanoyl)-N{epsilon-7}-(6-[(4S)-4-carboxy-4-(17-carboxyheptadecanamido)butanamido]hexanoyl)[4A,6A,7K,9E,11A,13T,17I,18Q,22V,28Y,30W,31L]-hPYY(4-36)]
4 | 0.2 | >10.0 | CC(C)CC(=O)N[C@@H](C)C(=O)N1CCC[C@H]1C(=O)N[C@@H](C)C(=O)N[C@@H](CCCCNC(=O)CCCCCNC(=O)CC[C@H](NC(=O)CCCCCCCCCCCCCCCCC(=O)O)C(=O)O)C(=O)N1CCC[C@H]1C(=O)N[C@@H](CCC(=O)O)C(=O)N[C@@H](CCC(=O)O)C(=O)N[C@@H](C)C(=O)N[C@@H](C)C(=O)N[C@@H](CCC(=O)O)C(=O)N1CCC[C@H]1C(=O)N[C@@H](CCC(=O)O)C(=O)N[C@@H](CCC(=O)O)C(=O)N[C@@H](CC(C)C)C(=O)N[C@@H](CCC(N)=O)C(=O)N[C@@H](CCCNC(=N)N)C(=O)N[C@@H](Cc1ccc(O)cc1)C(=O)N[C@@H](Cc1ccc(O)cc1)C(=O)N[C@H](C(=O)N[C@@H](C)C(=O)N[C@@H](CC(C)C)C(=O)N[C@@H](CCCNC(=N)N)C(=O)N[C@@H](Cc1c[nH]cn1)C(=O)N[C@@H](Cc1ccc(O)cc1)C(=O)N[C@@H](Cc1ccc(O)cc1)C(=O)N[C@@H](CC(N)=O)C(=O)N[C@@H](Cc1c[nH]c2ccccc12)C(=O)N[C@@H](CC(C)C)C(=O)N[C@H](C(=O)N[C@@H](CCCNC(=N)N)C(=O)N[C@@H](CCC(N)=O)C(=O)N[C@@H](CCCNC(=N)N)C(=O)N[C@@H](Cc1ccc(O)cc1)C(N)=O)[C@@H](C)O)C(C)C [Compound 161, N{alpha-4}-(3-methylbutanoyl)-N{epsilon-7}-(6-[(4S)-4-carboxy-4-(17-carboxyheptadecanamido)butanamido]hexanoyl)-[4A,6A,7K,9E,11A,13E,18Q,22V,23A,28Y,30W,31L]-hPYY(4-36)]
15.3 | 7.8 | >10.0 | CC(C)CC(=O)N[C@@H](C)C(=O)N1CCC[C@H]1C(=O)N[C@@H](CCC(=O)O)C(=O)N[C@@H](CCCCNC(=O)CCCCCNC(=O)CC[C@H](NC(=O)CCCCCCCCCCCCCCCCC(=O)O)C(=O)O)C(=O)N1CCC[C@H]1C(=O)N[C@@H](CCC(=O)O)C(=O)N[C@@H](CCC(=O)O)C(=O)N[C@@H](CC(=O)O)C(=O)N[C@@H](C)C(=O)N[C@H](C(=O)N1CCC[C@H]1C(=O)N[C@@H](CCC(=O)O)C(=O)N[C@@H](CCC(=O)O)C(=O)N1CCC[C@H]1C(=O)N[C@@H](CCC(N)=O)C(=O)N[C@@H](CCCNC(=N)N)C(=O)N[C@@H](Cc1ccc(O)cc1)C(=O)N[C@@H](Cc1ccc(O)cc1)C(=O)N[C@H](C(=O)N[C@@H](CO)C(=O)N[C@@H](CC(C)C)C(=O)N[C@@H](CCCNC(=N)N)C(=O)N[C@@H](Cc1c[nH]cn1)C(=O)N[C@@H](Cc1ccc(O)cc1)C(=O)N[C@@H](Cc1ccc(O)cc1)C(=O)N[C@@H](CC(N)=O)C(=O)N[C@@H](Cc1c[nH]c2ccccc12)C(=O)N[C@@H](CC(C)C)C(=O)N[C@H](C(=O)N[C@@H](CCCNC(=N)N)C(=O)N[C@@H](CCC(N)=O)C(=O)N[C@@H](CCCNC(=N)N)C(=O)N[C@@H](Cc1ccc(O)cc1)C(N)=O)[C@@H](C)O)C(C)C)[C@@H](C)O [Compound 187, N{alpha-4}-(3-methylbutanoyl)-N{epsilon-7}-(6-[(4S)-4-carboxy-4-(17-carboxyheptadecanamido)butanamido]hexanoyl)-[4A,7K,9E,13T,17P,18Q,22V,28Y,30W,31L]-hPYY(4-36)]
9.73 | >10.0 | 9.0 | CC(C)CC(=O)N[C@@H](C)C(=O)N1CCC[C@H]1C(=O)N[C@@H](C)C(=O)N[C@@H](CCCCNC(=O)CCCCCNC(=O)CC[C@H](NC(=O)CCCCCCCCCCCCCCCCC(=O)O)C(=O)O)C(=O)N1CCC[C@H]1C(=O)N[C@@H](CCC(=O)O)C(=O)N[C@@H](CCC(=O)O)C(=O)N[C@@H](CC(=O)O)C(=O)N[C@@H](C)C(=O)N[C@@H](CO)C(=O)N1CCC[C@H]1C(=O)N[C@@H](CCC(=O)O)C(=O)N[C@@H](CCC(=O)O)C(=O)N[C@@H](CC(C)C)C(=O)N[C@@H](CCC(N)=O)C(=O)N[C@@H](CCCNC(=N)N)C(=O)N[C@@H](Cc1ccc(O)cc1)C(=O)N[C@@H](Cc1ccc(O)cc1)C(=O)N[C@H](C(=O)N[C@@H](CO)C(=O)N[C@@H](CC(C)C)C(=O)N[C@@H](CCCNC(=N)N)C(=O)N[C@@H](Cc1c[nH]cn1)C(=O)N[C@@H](Cc1ccc(O)cc1)C(=O)N[C@@H](CCC(N)=O)C(=O)N[C@@H](CC(N)=O)C(=O)N[C@@H](Cc1c[nH]c2ccccc12)C(=O)N[C@@H](CC(C)C)C(=O)N[C@H](C(=O)N[C@@H](CCCNC(=N)N)C(=O)N[C@@H](CCC(N)=O)C(=O)N[C@@H](CCCNC(=N)N)C(=O)N[C@@H](Cc1ccc(O)cc1)C(N)=O)[C@@H](C)O)C(C)C [Compound 77, N{alpha-4}-(3-methylbutanoyl)-N{epsilon-7}-(6-[(4S)-4-carboxy-4-(17-carboxyheptadecanamido)butanamido]hexanoyl)-[4A,6A,7K,9E,18Q,22V,28Q,30W,31L]-hPYY(4-36)]
0.74 | 0.0 | 9.0 | CC(C)CC(=O)N[C@@H](C)C(=O)N1CCC[C@H]1C(=O)N[C@@H](CCC(=O)O)C(=O)N[C@@H](CCCCNC(=O)CCCCCNC(=O)CC[C@H](NC(=O)CCCCCCCCCCCCCCCCC(=O)O)C(=O)O)C(=O)N1CCC[C@H]1C(=O)N[C@@H](CCC(=O)O)C(=O)N[C@@H](C)C(=O)N1CCC[C@H]1C(=O)N[C@@H](C)C(=O)N[C@@H](CO)C(=O)N1CCC[C@H]1C(=O)N[C@@H](CCC(=O)O)C(=O)N[C@@H](CCC(=O)O)C(=O)N[C@@H](CC(C)C)C(=O)N[C@@H](CCC(N)=O)C(=O)N[C@@H](CCCNC(=N)N)C(=O)N[C@@H](Cc1ccc(O)cc1)C(=O)N[C@@H](Cc1ccc(O)cc1)C(=O)N[C@H](C(=O)N[C@@H](CO)C(=O)N[C@@H](CC(C)C)C(=O)N[C@@H](CCCNC(=N)N)C(=O)N[C@@H](Cc1c[nH]cn1)C(=O)N[C@@H](Cc1ccc(O)cc1)C(=O)N[C@@H](Cc1ccc(O)cc1)C(=O)N[C@@H](CC(N)=O)C(=O)N[C@@H](Cc1c[nH]c2ccccc12)C(=O)N[C@@H](CC(C)C)C(=O)N[C@H](C(=O)N[C@@H](CCCNC(=N)N)C(=O)N[C@@H](CCC(N)=O)C(=O)N[C@@H](CCCNC(=N)N)C(=O)N[C@@H](Cc1ccc(O)cc1)C(N)=O)[C@@H](C)O)C(C)C [Compound 192, N{alpha-4}-(3-methylbutanoyl)-N{epsilon-7}-(6-[(4S)-4-carboxy-4-(17-carboxyheptadecanamido)butanamido]hexanoyl)-[4A,7K,9E,10A,11P,18Q,22V,28Y,30W,31L]-hPYY(4-36)] (Isovaleryl-APEK([Ahx-γGlu-C18 diacid])PEAPASPEELQRYYVSLRHYYNWLTRQRY-NH2)
